Assay results as given in patent US8637498B2, “Oxopiperazine-azetidine amides and oxodiazepine-azetidine amides as monoacylglycerol lipase inhibitors” (Janssen Pharmaceutica, NV, priority 2010, dated 2014).
Changes are numbered by the printed parent chain. Read-outs that look alike come from different tables or passages of the source.

Assays:
[1] = target: T1, purified wild type MGL (wt-MGLL 6H-11-313) (Homo sapiens, UniProt Q99685); assay: MGL Enzyme Activity Assay (wild type MGL, 4MU-B substrate); format: biochemical; details: wild type MGL 5 nM, 4MU-B 10 μM, 37° C.; read-out: MGL wild type inh IC50
T1 construct: wt-MGLL 6H-11-313; 6H (hexahistidine) (N)
T1 sequence (Q99685 1-303): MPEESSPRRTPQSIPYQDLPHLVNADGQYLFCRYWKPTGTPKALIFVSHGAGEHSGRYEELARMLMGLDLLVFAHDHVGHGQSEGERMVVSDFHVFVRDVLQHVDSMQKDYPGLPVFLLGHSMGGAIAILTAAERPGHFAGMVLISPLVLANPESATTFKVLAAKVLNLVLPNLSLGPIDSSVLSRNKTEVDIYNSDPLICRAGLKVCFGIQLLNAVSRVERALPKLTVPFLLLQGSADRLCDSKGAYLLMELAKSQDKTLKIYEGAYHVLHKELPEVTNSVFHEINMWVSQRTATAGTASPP
Procedure: All rate-based assays were performed in black 384-well polypropylene PCR microplates (Abgene) in a total volume of 30 μL. Substrate 4-methylumbelliferyl butyrate (4MU-B; Sigma) and either purified mutant MGL (mut-MGLL 11-313 L179S L186S) or purified wild type MGL (wt-MGLL 6H-11-313) were diluted separately into 20 mM PIPES buffer (pH=7.0), containing 150 mM NaCl and 0.001% Tween 20. Compounds of Formula (Ia) and (Ib) were pre-dispensed (50 nL) into the assay plate using a Cartesian Hummingbird prior to adding 4MU-B (25 μL of 1.2× solution to a final concentration of 10 μM) followed by enzyme (5 μL of a 6× solution to a final concentration of 5 nM) to initiate the reaction. Final compound concentrations ranged from 17 to 0.0003 μM. The fluorescence change due to 4MU-B cleavage was monitored with excitation and emission wavelengths of 335 and 440 nm, respectively, and a bandwidth of 10 nm (Safire^2, Tecan) at 37° C. for 5 min.
The IC50 values for compounds of Formula (Ia) or (Ib) were determined using Excel from a fit of the equation to the concentration-response plot of the fractional activity as a function of inhibitor concentration.

mutant MGL = target: T2, mutant MGL (Homo sapiens, UniProt Q99685, L169S/L176S); assay: MGL ThermoFluor Assay - Mutant; format: binding
T2 construct: mut-MGLL 11-313 L179S L186S
T2 sequence (Q99685 1-303 L169S/L176S): T1 sequence (Q99685 1-303) with L169S, L176S
Procedure: The ThermoFluor (TF) assay is a 384-well plate-based binding assay that measures thermal stability of proteins^1,2. The experiments were carried out using instruments available from Johnson & Johnson Pharmaceutical Research & Development, LLC. TF dye used in all experiments was 1,8-ANS (Invitrogen: A-47). Final TF assay conditions used for MGL studies were 0.07 mg/ml of mutant MGL, 100 μM ANS, 200 mM NaCl, 0.001% Tween-20 in 50 mM PIPES (pH=7.0).
Screening compound plates contained 100% DMSO compound solutions at a single concentration. For follow-up concentration-response studies, compounds were arranged in a pre-dispensed plate (Greiner Bio-one: 781280), wherein compounds were serially diluted in 100% DMSO across 11 columns within a series. Columns 12 and 24 were used as DMSO reference and contained no compound. For both single and multiple compound concentration-repsonse experiments, the compound aliquots (46 nL) were robotically predispensed directly into 384-well black assay plates (Abgene: TF-0384/k) using the Hummingbird liquid handler. Following compound dispension, protein and dye solutions were added to achieve the final assay volume of 3 μL. The assay solutions were overlayed with 1 μL of silicone oil (Fluka, type DC 200: 85411) to prevent evaporation.
Bar-coded assay plates were robotically loaded onto a thermostatically controlled PCR-type thermal block and then heated from 40 to 90° C. degrees at a ramp-rate of 1° C./min for all experiments. Fluorescence was measured by continuous illumination with UV light (Hamamatsu LC6), supplied via fiber optics and filtered through a band-pass filter (380-400 nm; >6 OD cutoff). Fluorescence emission of the entire 384-well plate was detected by measuring light intensity using a CCD camera (Sensys, Roper Scientific) filtered to detect 500±25 nm, resulting in simultaneous and independent readings of all 384 wells. A single image with 20-sec exposure time was collected at each temperature, and the sum of the pixel intensity in a given area of the assay plate was recorded vs temperature and fit to standard equations to yield the Tm^1. • 1. Pantoliano, M. W., Petrella, E. C., Kwasnoski, J. D., Lobanov, V. S., Myslik, J., Graf, E., Carver, T., Asel, E., Springer, B. A., Lane, P., and Salemme, F. R. (2001) J Biomol Screen 6, 429-40. • 2. Matulis, D., Kranz, J. K., Salemme, F. R., and Todd, M. J. (2005) Biochemistry 44, 5258-66.
The Kd values for compounds of Formula (Ia) and (Ib) were determined from a fit of the equation to the concentration-response plot of the fractional activity as a function of Tm. For some experiments, quantitative NMR spectroscopy (qNMR) was used to measure concentration of the initial 100% DMSO compound solutions and, using the same fitting method, qKd values were determined.

[2] = mutant MGL, compound concentration measured by qNMR, read-out: MGL mutant ThermoFluor qKd (using qNMR conc.)
[3] = mutant MGL 0.07 mg/ml, 1,8-ANS dye, read-out: MGL mutant ThermoFluor Kd

SMILES | IC50 [1] [nM] | Kd (mutant MGL; [2]) [nM] | Kd (mutant MGL; [3]) [nM]
O=C(c1ccc2c(ccn2-c2ccc(F)cc2)c1)N1CC(N2CCN(c3ncccn3)C(=O)C2)C1 [Cpd 4, 4-(1-{[1-(4-Fluorophenyl)-1H-indol-5-yl]carbonyl}azetidin-3-yl)-1-pyrimidin-2-ylpiperazin-2-one] | 134 | 943 | 
O=C(c1sc2cc(C(F)(F)F)ccc2c1Cl)N1CC(N2CCN(c3ncccn3)C(=O)C2)C1 [Cpd 8, 4-(1-{[3-Chloro-6-(trifluoromethyl)-1-benzothiophen-2-yl]carbonyl}azetidin-3-yl)-1-pyrimidin-2-ylpiperazin-2-one] | 124 | 165 | 
O=C(c1ccc(-c2ccccc2)cc1)N1CC(N2CCN(c3ncccn3)C(=O)C2)C1 [Cpd 9, 4-[1-(Biphenyl-4-ylcarbonyl)azetidin-3-yl]-1-pyrimidin-2-ylpiperazin-2-one] | 7850 | 5660 | 
O=C(c1ccc2nc(-c3ccccc3)sc2c1)N1CC(N2CCN(c3ncccn3)C(=O)C2)C1 [Cpd 10, 4-{1-[(2-Phenyl-1,3-benzothiazol-6-yl)carbonyl]azetidin-3-yl}-1-pyrimidin-2-ylpiperazin-2-one] | 3640 | 10600 | 
O=C(c1sc2cc(C(F)(F)F)ccc2c1Cl)N1CC(N2CCN(c3nccs3)C(=O)C2)C1 [Cpd 11, 4-(1-{[3-Chloro-6-(trifluoromethyl)-1-benzothiophen-2-yl]carbonyl}azetidin-3-yl)-1-(1,3-thiazol-2-yl)piperazin-2-one] | < 5 |  | 64.3
O=C(c1ccc2nc(-c3ccccc3)sc2c1)N1CC(N2CCN(c3nccs3)C(=O)C2)C1 [Cpd 12, 4-{1-[(2-Phenyl-1,3-benzothiazol-6-yl)carbonyl]azetidin-3-yl}-1-(1,3-thiazol-2-yl)piperazin-2-one] | 98.6 |  | 994
O=C(c1ccc2c(ccn2-c2ccc(C(F)(F)F)cc2)c1)N1CC(N2CCN(c3ccccc3)C(=O)C2)C1 [Cpd 13, 1-Phenyl-4-[1-({1-[4-(trifluoromethyl)phenyl]-1H-indol-5-yl}carbonyl)azetidin-3-yl]piperazin-2-one] | 908 |  | 1350
O=C(c1sc2cc(C(F)(F)F)ccc2c1Cl)N1CC(N2CCN(c3ccccc3)C(=O)C2)C1 [Cpd 14, 4-(1-{[3-Chloro-6-(trifluoromethyl)-1-benzothiophen-2-yl]carbonyl}azetidin-3-yl)-1-phenylpiperazin-2-one] | 225 |  | 495
O=C(c1ccc2c(ccn2-c2ccc(F)c(F)c2)c1)N1CC(N2CCN(c3ccccc3)C(=O)C2)C1 [Cpd 15, 4-(1-{[1-(3,4-Difluorophenyl)-1H-indol-5-yl]carbonyl}azetidin-3-yl)-1-phenylpiperazin-2-one] | 304 |  | 1970
O=C(c1ccc2nc(-c3ccccc3)oc2c1)N1CC(N2CCN(c3nccs3)C(=O)C2)C1 [Cpd 16, 4-{1-[(2-Phenyl-1,3-benzoxazol-6-yl)carbonyl]azetidin-3-yl}-1-(1,3-thiazol-2-yl)piperazin-2-one] | 67.7 | 1380 | 
O=C(c1sc2cc(C(F)(F)F)ccc2c1Cl)N1CC(N2CCC(=O)N(c3ncccn3)CC2)C1 [Cpd 17, 1-(1-{[3-Chloro-6-(trifluoromethyl)-1-benzothiophen-2-yl]carbonyl}azetidin-3-yl)-4-pyrimidin-2-yl-1,4-diazepan-5-one] | 55.4 | 52.5 | 
O=C(c1ccc(-c2ccccc2)cc1)N1CC(N2CCN(c3nccs3)C(=O)C2)C1 [Cpd 18, 4-[1-(Biphenyl-4-ylcarbonyl)azetidin-3-yl]-1-(1,3-thiazol-2-yl)piperazin-2-one] | 1660 | 1370 | 
O=C(c1sc2cc(C(F)(F)F)ccc2c1Cl)N1CC(N2CCC(=O)N(c3nccs3)CC2)C1 [Cpd 19, 1-(1-{[3-Chloro-6-(trifluoromethyl)-1-benzothiophen-2-yl]carbonyl}azetidin-3-yl)-4-(1,3-thiazol-2-yl)-1,4-diazepan-5-one] | < 5 | 0.8 | 
O=C(c1ccc2c(ccn2-c2ccc(F)cc2)c1)N1CC(N2CCC(=O)N(c3ncccn3)CC2)C1 [Cpd 20, 1-(1-{[1-(4-Fluorophenyl)-1H-indol-5-yl]carbonyl}azetidin-3-yl)-4-pyrimidin-2-yl-1,4-diazepan-5-one] | 248 | 282 | 
O=C(c1ccc2c(ccn2-c2ccc(F)cc2)c1)N1CC(N2CCC(=O)N(c3nccs3)CC2)C1 [Cpd 21, 1-(1-{[1-(4-Fluorophenyl)-1H-indol-5-yl]carbonyl}azetidin-3-yl)-4-(1,3-thiazol-2-yl)-1,4-diazepan-5-one] | < 5 | 1 | 
O=C(c1ccc2nc(-c3ccccc3)oc2c1)N1CC(N2CCC(=O)N(c3nccs3)CC2)C1 [Cpd 22, 1-{1-[(2-Phenyl-1,3-benzoxazol-6-yl)carbonyl]azetidin-3-yl}-4-(1,3-thiazol-2-yl)-1,4-diazepan-5-one] | < 5 | 2.5 | 
O=C(c1cc2ccc(C(F)(F)F)cc2s1)N1CC(N2CCN(c3ncccn3)CC2=O)C1 [Cpd 23, 4-Pyrimidin-2-yl-1-(1-{[6-(trifluoromethyl)-1-benzothiophen-2-yl]carbonyl}azetidin-3-yl)piperazin-2-one] | 568 |  | 714
